Assay results as given in paper PMC10408569, “Recruitment of hexahydroquinoline as anticancer scaffold targeting inhibition of wild and mutants EGFR (EGFR^WT, EGFR^T790M, and EGFR^L858R)” (Journal of Enzyme Inhibition and Medicinal Chemistry, 2023).

Experiments:
EGFR^WT = EGFR^WT (Homo sapiens, UniProt P00533); experiment: EGFR kinase inhibitory assay (HTRF)
NCI-H460 = experiment: NCI-60 anticancer screening (SRB); assay type: cell-based; settings: Homo sapiens; NCI-H460, NSC lung cancer; one dose 10 μM; read-out: Growth Inhibition Percentage (GI %)
TK-10 = experiment: NCI-60 anticancer screening (SRB); assay type: cell-based; settings: Homo sapiens; TK-10, renal cancer; one dose 10 μM; read-out: Growth Inhibition Percentage (GI %)
HCT-116 = experiment: NCI-60 anticancer screening (SRB); assay type: cell-based; settings: Homo sapiens; HCT-116, colon cancer; one dose 10 μM; read-out: Growth Inhibition Percentage (GI %)
EKVX = experiment: NCI-60 anticancer screening (SRB); assay type: cell-based; settings: Homo sapiens, NSC lung cancer, one dose 10 μM, read-out: Growth Inhibition Percentage (GI %)
U251 = experiment: NCI-60 anticancer screening (SRB); assay type: cell-based; settings: Homo sapiens, U-251; U251, CNS cancer; one dose 10 μM; read-out: Growth Inhibition Percentage (GI %)
MCF7 = experiment: NCI-60 anticancer screening (SRB); assay type: cell-based; settings: Homo sapiens; MCF7, breast cancer; one dose 10 μM; read-out: Growth Inhibition Percentage (GI %)
SK-MEL-28 = experiment: NCI-60 anticancer screening (SRB); assay type: cell-based; settings: Homo sapiens; SK-MEL-28, melanoma; one dose 10 μM; read-out: Growth Inhibition Percentage (GI %)
COLO 205 = experiment: NCI-60 anticancer screening (SRB); assay type: cell-based; settings: Homo sapiens; COLO 205, colon cancer; one dose 10 μM; read-out: Growth Inhibition Percentage (GI %)
EGFR^T790M = EGFR^T790M (Homo sapiens, UniProt P00533, T790M); experiment: biochemical
HS 578T = experiment: NCI-60 anticancer screening (SRB); assay type: cell-based; settings: Homo sapiens; HS 578T, breast cancer; one dose 10 μM; read-out: Growth Inhibition Percentage (GI %)
786-0 = experiment: NCI-60 anticancer screening (SRB); assay type: cell-based; settings: Homo sapiens; 786-0, renal cancer; one dose 10 μM; read-out: Growth Inhibition Percentage (GI %)
HOP-92 = experiment: NCI-60 anticancer screening (SRB); assay type: cell-based; settings: Homo sapiens; HOP-92, NSC lung cancer; one dose 10 μM; read-out: Growth Inhibition Percentage (GI %)
CAKI-1 = experiment: NCI-60 anticancer screening (SRB); assay type: cell-based; settings: Homo sapiens; CAKI-1, renal cancer; one dose 10 μM; read-out: Growth Inhibition Percentage (GI %)
BT-549 = experiment: NCI-60 anticancer screening (SRB); assay type: cell-based; settings: Homo sapiens; BT-549, breast cancer; one dose 10 μM; read-out: Growth Inhibition Percentage (GI %)
UACC-62 = experiment: NCI-60 anticancer screening (SRB); assay type: cell-based; settings: Homo sapiens; UACC-62, melanoma; one dose 10 μM; read-out: Growth Inhibition Percentage (GI %)
M14 = experiment: NCI-60 anticancer screening (SRB); assay type: cell-based; settings: Homo sapiens; M14, melanoma; one dose 10 μM; read-out: Growth Inhibition Percentage (GI %)
UO-31 = experiment: NCI-60 anticancer screening (SRB); assay type: cell-based; settings: Homo sapiens; UO-31, renal cancer; one dose 10 μM; read-out: Growth Inhibition Percentage (GI %)
IGROV1 = experiment: NCI-60 anticancer screening (SRB); assay type: cell-based; settings: Homo sapiens, IGROV-1; IGROV1, ovarian cancer; one dose 10 μM; read-out: Growth Inhibition Percentage (GI %)
A498 = experiment: NCI-60 anticancer screening (SRB); assay type: cell-based; settings: Homo sapiens; A498, renal cancer; one dose 10 μM; read-out: Growth Inhibition Percentage (GI %)
NCI/ADR-RES = experiment: NCI-60 anticancer screening (SRB); assay type: cell-based; settings: Homo sapiens, ovarian cancer, one dose 10 μM, read-out: Growth Inhibition Percentage (GI %)
PC-3 = experiment: NCI-60 anticancer screening (SRB); assay type: cell-based; settings: Homo sapiens; PC-3, prostate cancer; one dose 10 μM; read-out: Growth Inhibition Percentage (GI %)
SN 12C = experiment: NCI-60 anticancer screening (SRB); assay type: cell-based; settings: Homo sapiens, SN12C; SN 12C, renal cancer; one dose 10 μM; read-out: Growth Inhibition Percentage (GI %)
CCRF-CEM = experiment: NCI-60 anticancer screening (SRB); assay type: cell-based; settings: Homo sapiens, leukemia, one dose 10 μM, read-out: Growth Inhibition Percentage (GI %)
DU-145 = experiment: NCI-60 anticancer screening (SRB); assay type: cell-based; settings: Homo sapiens; DU-145, prostate cancer; one dose 10 μM; read-out: Growth Inhibition Percentage (GI %)
HT29 = experiment: NCI-60 anticancer screening (SRB); assay type: cell-based; settings: Homo sapiens, HT-29; HT29, colon cancer; one dose 10 μM; read-out: Growth Inhibition Percentage (GI %)
SF-539 = experiment: NCI-60 anticancer screening (SRB); assay type: cell-based; settings: Homo sapiens; SF-539, CNS cancer; one dose 10 μM; read-out: Growth Inhibition Percentage (GI %)
MDA-MB-231 = experiment: NCI-60 anticancer screening (SRB); assay type: cell-based; settings: Homo sapiens; MDA-MB-231, breast cancer; one dose 10 μM; read-out: Growth Inhibition Percentage (GI %)
SF-295 = experiment: NCI-60 anticancer screening (SRB); assay type: cell-based; settings: Homo sapiens; SF-295, CNS cancer; one dose 10 μM; read-out: Growth Inhibition Percentage (GI %)
EGFR^L858R = EGFR^L858R (Homo sapiens, UniProt P00533, L858R); experiment: biochemical
MALME-3M = experiment: NCI-60 anticancer screening (SRB); assay type: cell-based; settings: Homo sapiens, melanoma, one dose 10 μM, read-out: Growth Inhibition Percentage (GI %)

Chain of EGFR^WT (P00533 25-1210): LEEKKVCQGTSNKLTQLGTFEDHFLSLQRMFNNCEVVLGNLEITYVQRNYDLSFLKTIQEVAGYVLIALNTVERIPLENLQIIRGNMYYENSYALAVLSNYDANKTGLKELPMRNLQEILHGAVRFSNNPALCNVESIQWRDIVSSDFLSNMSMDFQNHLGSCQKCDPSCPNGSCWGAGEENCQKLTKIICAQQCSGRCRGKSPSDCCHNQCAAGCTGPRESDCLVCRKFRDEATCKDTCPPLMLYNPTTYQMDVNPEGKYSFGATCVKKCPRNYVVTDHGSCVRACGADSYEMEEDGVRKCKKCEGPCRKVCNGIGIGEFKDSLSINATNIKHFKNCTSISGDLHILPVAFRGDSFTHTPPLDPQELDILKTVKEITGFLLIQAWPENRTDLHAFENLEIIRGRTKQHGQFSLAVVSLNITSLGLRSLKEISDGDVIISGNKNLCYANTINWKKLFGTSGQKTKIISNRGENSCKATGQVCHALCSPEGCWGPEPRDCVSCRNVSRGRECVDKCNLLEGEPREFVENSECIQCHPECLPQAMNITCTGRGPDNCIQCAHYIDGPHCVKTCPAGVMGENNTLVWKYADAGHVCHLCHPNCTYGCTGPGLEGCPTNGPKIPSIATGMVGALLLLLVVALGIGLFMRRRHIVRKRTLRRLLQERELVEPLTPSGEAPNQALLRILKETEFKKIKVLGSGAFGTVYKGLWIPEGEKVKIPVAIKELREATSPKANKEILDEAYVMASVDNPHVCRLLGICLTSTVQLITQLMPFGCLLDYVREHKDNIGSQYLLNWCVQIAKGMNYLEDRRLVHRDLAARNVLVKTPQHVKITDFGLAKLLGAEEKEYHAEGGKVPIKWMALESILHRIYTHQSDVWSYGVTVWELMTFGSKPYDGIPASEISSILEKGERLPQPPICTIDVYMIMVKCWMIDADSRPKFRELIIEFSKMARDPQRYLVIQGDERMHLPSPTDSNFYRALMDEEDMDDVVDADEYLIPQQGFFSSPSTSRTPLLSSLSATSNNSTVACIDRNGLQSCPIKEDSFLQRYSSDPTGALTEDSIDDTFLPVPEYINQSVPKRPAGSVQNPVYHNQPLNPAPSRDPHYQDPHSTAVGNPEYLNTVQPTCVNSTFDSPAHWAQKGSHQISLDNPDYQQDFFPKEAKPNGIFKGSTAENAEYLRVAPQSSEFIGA
Chain of EGFR^T790M (P00533 25-1210 T790M): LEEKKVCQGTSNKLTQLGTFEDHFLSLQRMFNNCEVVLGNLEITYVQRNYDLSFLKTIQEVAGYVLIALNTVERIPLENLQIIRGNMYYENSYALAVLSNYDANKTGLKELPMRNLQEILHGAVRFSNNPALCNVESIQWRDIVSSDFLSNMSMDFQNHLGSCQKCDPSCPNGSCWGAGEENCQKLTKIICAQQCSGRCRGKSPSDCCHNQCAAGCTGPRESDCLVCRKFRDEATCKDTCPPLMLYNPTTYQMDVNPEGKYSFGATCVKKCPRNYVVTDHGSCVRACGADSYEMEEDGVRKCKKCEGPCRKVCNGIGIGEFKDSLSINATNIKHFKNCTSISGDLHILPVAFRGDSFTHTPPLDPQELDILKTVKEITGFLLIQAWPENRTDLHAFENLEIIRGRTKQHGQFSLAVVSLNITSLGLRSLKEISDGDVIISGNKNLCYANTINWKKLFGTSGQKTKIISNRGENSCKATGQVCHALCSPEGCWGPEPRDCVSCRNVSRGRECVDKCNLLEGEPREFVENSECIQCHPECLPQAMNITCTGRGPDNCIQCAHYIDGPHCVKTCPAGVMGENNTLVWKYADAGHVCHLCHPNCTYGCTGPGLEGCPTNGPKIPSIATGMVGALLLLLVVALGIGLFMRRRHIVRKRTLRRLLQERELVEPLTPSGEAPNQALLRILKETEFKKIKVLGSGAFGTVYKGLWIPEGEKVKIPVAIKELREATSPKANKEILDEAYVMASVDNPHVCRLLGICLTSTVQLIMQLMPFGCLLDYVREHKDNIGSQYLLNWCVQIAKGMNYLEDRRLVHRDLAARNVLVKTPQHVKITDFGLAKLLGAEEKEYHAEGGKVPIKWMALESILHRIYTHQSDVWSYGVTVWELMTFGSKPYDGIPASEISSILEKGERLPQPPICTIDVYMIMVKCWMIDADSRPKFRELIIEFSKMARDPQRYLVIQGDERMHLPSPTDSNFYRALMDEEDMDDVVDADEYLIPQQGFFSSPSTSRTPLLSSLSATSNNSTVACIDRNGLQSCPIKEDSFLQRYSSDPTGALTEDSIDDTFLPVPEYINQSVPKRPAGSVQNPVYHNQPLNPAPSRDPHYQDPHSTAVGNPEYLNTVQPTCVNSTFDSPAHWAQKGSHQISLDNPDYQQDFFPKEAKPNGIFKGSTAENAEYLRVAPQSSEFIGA
Chain of EGFR^L858R (P00533 25-1210 L858R): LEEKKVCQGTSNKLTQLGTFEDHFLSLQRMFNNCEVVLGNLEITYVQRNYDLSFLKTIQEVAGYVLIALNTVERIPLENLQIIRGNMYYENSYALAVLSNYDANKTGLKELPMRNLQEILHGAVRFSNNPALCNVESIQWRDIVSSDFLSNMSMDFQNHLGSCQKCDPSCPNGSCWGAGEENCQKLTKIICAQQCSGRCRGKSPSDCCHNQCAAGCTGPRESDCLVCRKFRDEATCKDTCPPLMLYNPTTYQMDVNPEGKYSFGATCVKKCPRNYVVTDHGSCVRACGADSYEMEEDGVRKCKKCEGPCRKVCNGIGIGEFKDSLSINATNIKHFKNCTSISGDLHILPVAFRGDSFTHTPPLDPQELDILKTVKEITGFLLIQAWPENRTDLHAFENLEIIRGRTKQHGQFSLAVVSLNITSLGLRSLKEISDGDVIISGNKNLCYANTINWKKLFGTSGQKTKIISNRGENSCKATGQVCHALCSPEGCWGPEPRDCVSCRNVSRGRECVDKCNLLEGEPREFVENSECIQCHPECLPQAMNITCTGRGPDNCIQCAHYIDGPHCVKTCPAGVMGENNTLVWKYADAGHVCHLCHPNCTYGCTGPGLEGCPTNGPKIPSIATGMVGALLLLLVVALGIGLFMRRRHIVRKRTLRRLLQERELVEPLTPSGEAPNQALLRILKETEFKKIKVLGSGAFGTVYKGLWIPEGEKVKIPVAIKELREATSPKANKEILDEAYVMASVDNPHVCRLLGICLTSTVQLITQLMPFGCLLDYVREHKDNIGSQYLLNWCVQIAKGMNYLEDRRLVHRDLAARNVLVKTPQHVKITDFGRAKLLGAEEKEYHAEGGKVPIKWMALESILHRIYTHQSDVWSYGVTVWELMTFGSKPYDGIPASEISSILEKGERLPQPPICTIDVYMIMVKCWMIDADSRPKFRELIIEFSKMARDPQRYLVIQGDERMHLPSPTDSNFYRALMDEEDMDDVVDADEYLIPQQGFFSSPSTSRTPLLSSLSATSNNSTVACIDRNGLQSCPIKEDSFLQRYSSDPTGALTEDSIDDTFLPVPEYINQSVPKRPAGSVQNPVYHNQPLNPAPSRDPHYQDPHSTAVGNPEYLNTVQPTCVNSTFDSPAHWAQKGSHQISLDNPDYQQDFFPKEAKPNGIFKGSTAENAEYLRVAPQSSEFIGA

SMILES	IC50 (EGFR^WT)	inhibition at 10 µM (NCI-H460)	inhibition at 10 µM (TK-10)	inhibition at 10 µM (HCT-116)	inhibition at 10 µM (EKVX)	inhibition at 10 µM (U251)	inhibition at 10 µM (MCF7)	inhibition at 10 µM (SK-MEL-28)	inhibition at 10 µM (COLO 205)	IC50 (EGFR^T790M)	inhibition at 10 µM (HS 578T)	inhibition at 10 µM (786-0)	inhibition at 10 µM (HOP-92)	inhibition at 10 µM (CAKI-1)	inhibition at 10 µM (BT-549)	inhibition at 10 µM (UACC-62)	inhibition at 10 µM (M14)	inhibition at 10 µM (UO-31)	inhibition at 10 µM (IGROV1)	inhibition at 10 µM (A498)	other results
CCOC(=O)C1=C(N)N(c2ccccc2)C2=C(C(=O)CC(C)(C)C2)C1c1ccc(Cl)cc1 (racemic) [8c, (±)-Ethyl 2-amino-4–(4-chlorophenyl)-7,7-dimethyl-5-oxo-1-phenyl-1,4,5,6,7,8-hexahydroquinoline-3-carboxylate]	194 ± 90 nM	87%	20%	81%	72%	58%	83%	56%	118%	820 ± 6 nM	28%	33%	30%	50%	57%	78%	72%	71%	40%	33%	inhibition at 10 µM (NCI/ADR-RES): 74%; inhibition at 10 µM (PC-3): 78%; inhibition at 10 µM (SN 12C): 46%; inhibition at 10 µM (CCRF-CEM): 85%; inhibition at 10 µM (DU-145): 42%; inhibition at 10 µM (HT29): 65%; inhibition at 10 µM (SF-539): 64%; inhibition at 10 µM (MDA-MB-231): 47%; inhibition at 10 µM (SF-295): 79%; IC50 (EGFR^L858R): 812 ± 5 nM; inhibition at 10 µM (MALME-3M): 84%
CCOC(=O)C1=C(N)N(c2ccc(Cl)cc2)C2=C(C(=O)CC(C)(C)C2)C1c1ccccc1OC (racemic) [6i, (±)-Ethyl 2-amino-1–(4-chlorophenyl)-4–(2-methoxyphenyl)-7,7-dimethyl-5-oxo-1,4,5,6,7,8-hexahydroquinoline-3-carboxylate]	157 ± 30 nM	51%	< 10%	65%	44%	28%	65%	36%	50%	450 ± 3 nM	32%	< 10%	12%	12%	20%	44%	49%	43%	27%	< 10%	inhibition at 10 µM (NCI/ADR-RES): 40%; inhibition at 10 µM (PC-3): 68%; inhibition at 10 µM (SN 12C): 12%; inhibition at 10 µM (CCRF-CEM): 56%; inhibition at 10 µM (DU-145): < 10%; inhibition at 10 µM (HT29): 44%; inhibition at 10 µM (SF-539): 31%; inhibition at 10 µM (MDA-MB-231): 31%; inhibition at 10 µM (SF-295): 41%; IC50 (EGFR^L858R): 230 ± 1 nM; inhibition at 10 µM (MALME-3M): 40%
